Test results published in patent US20020137929A1, “1 - (3-heterocyclylphenyl) isothiourea, -isourea, -guanidine and -amidine herbicidal agents” (Intellectual Property Department, BASF Aktiengesellschaft, priority 1998, published 2002).

Assays:
GALAP (Galium) = assay: Preemergence herbicidal evaluation; format: in vivo, Galium aparine; settings: rated 4-5 weeks after treatment; for GALAP rating: preemergence, 0-9 scale
In short: (§1)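 Scores (0–9) reflect visual comparison with control plants for stand, vigor, malformation, size and chlorosis. Compound was applied to the soil after sowing, before emergence, as an aqueous acetone spray (about 0.0156–0.500 kg/ha), and cups were kept in a greenhouse for 4–5 weeks.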

[1] = test system: GLXMAW (Soybean, Williams); assay: Preemergence herbicidal evaluation; format: in vivo, Glycine max, (L.) Merr. cv Williams; settings: rated 4-5 weeks after treatment; for GLXMAW rating: preemergence, 0-9 scale
In short: as §1

[2] = test system: IPOHE (Morningglory, Ivyleaf); assay: Postemergence herbicidal evaluation; format: in vivo, Ipomoea hederacea; settings: for IPOHE herbicidal rating: postemergence
In short: (§2)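 Rate range approx. 0.0156–0.500 kg/ha. Foliar application at 40 psi to ~2-week seedlings; surfactant 0.5% TWEEN 20 in 50/50 acetone/water. Evaluation 4–5 wk post-treatment by 0–9 visual injury score, means of replicate tests.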

MOOVA (Monochoria) = assay: Postemergence weed control under flooded paddy conditions; format: in vivo, Monochoria vaginalis; settings: postemergence weeds
In short: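 Weeds 3 to 5 cm tall and rice seedlings at the 1.5 to 2.5 leaf stage were flooded, with water held 1.5 to 3 cm above the soil. Compounds in 50/50 v/v aqueous/acetone went into the flood water at about 0.0313 to 0.500 kg/ha. Visual 0-9 ratings versus control were made 3 to 4 weeks later.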

ECHCG (Barnyardgrass) = assay: Preemergence herbicidal evaluation; format: in vivo, Echinochloa crus-galli; settings: rated 4-5 weeks after treatment; for ECHCG rating: preemergence, 0-9 scale
In short: as §1

[3] = test system: CHEAL (Lambsquarters, Common); assay: Postemergence herbicidal evaluation; format: in vivo, Chenopodium album; settings: for CHEAL herbicidal rating: postemergence
In short: as §2

[4] = rate 0.0313 kg/ha, 3-4 weeks after treatment
[5] = rate 0.0625 kg/ha, 3-4 weeks after treatment
[6] = rate 0.1250 kg/ha, 3-4 weeks after treatment
[7] = rate 0.2500 kg/ha, 3-4 weeks after treatment
[8] = Rate 0.0313 kg/ha, rated 3 to 4 weeks after treatment
[9] = Rate 0.0625 kg/ha, rated 3 to 4 weeks after treatment
[10] = Rate 0.1250 kg/ha, rated 3 to 4 weeks after treatment
[11] = Rate 0.2500 kg/ha, rated 3 to 4 weeks after treatment

Structure (SMILES): CCOC(=O)CN1C(=O)CSC1=Nc1cc(-n2c(=O)cc(C(F)(F)F)n(C)c2=O)c(F)cc1Cl [Compound 8, Ethyl 2-{{2-chloro-5-[3,6-dihydro-3-methyl-2,6-dioxo-4-(trifluoromethyl)-1(2H)pyrimidinyl]-4-fluorophenyl}imino}-4-oxo-3-thiazolidineacetate]
- GALAP preemergence herbicidal rating (GALAP (Galium); rate 0.0156 kg/ha): 0.0
- GALAP preemergence herbicidal rating (GALAP (Galium); rate 0.0313 kg/ha): 1.3
- GALAP preemergence herbicidal rating (GALAP (Galium); rate 0.0625 kg/ha): 5.5
- GALAP preemergence herbicidal rating (GALAP (Galium); rate 0.1250 kg/ha): 7.5
- GALAP preemergence herbicidal rating (GALAP (Galium); rate 0.2500 kg/ha): 9.0
- GALAP preemergence herbicidal rating (GALAP (Galium); rate 0.5000 kg/ha): 9.0
- GLXMAW preemergence herbicidal rating ([1]; rate 0.0156 kg/ha): 0.2
- GLXMAW preemergence herbicidal rating ([1]; rate 0.0313 kg/ha): 1.1
- GLXMAW preemergence herbicidal rating ([1]; rate 0.0625 kg/ha): 3.2
- GLXMAW preemergence herbicidal rating ([1]; rate 0.1250 kg/ha): 5.9
- GLXMAW preemergence herbicidal rating ([1]; rate 0.2500 kg/ha): 7.9
- GLXMAW preemergence herbicidal rating ([1]; rate 0.5000 kg/ha): 8.8
- IPOHE herbicidal rating ([2]; rate 0.0157 kg/ha): 9.0
- IPOHE herbicidal rating ([2]; rate 0.0313 kg/ha): 9.0
- IPOHE herbicidal rating ([2]; rate 0.0625 kg/ha): 9.0
- IPOHE herbicidal rating ([2]; rate 0.1250 kg/ha): 9.0
- Herbicidal rating MOOVA (MOOVA (Monochoria); [4]): 9.0
- Herbicidal rating MOOVA (MOOVA (Monochoria); [5]): 9.0
- Herbicidal rating MOOVA (MOOVA (Monochoria); [6]): 9.0
- Herbicidal rating MOOVA (MOOVA (Monochoria); [7]): 9.0
- ECHCG preemergence herbicidal rating (ECHCG (Barnyardgrass); rate 0.0156 kg/ha): 0.4
- ECHCG preemergence herbicidal rating (ECHCG (Barnyardgrass); rate 0.0313 kg/ha): 2.2
- ECHCG preemergence herbicidal rating (ECHCG (Barnyardgrass); rate 0.0625 kg/ha): 4.4
- ECHCG preemergence herbicidal rating (ECHCG (Barnyardgrass); rate 0.1250 kg/ha): 7.4
- ECHCG preemergence herbicidal rating (ECHCG (Barnyardgrass); rate 0.2500 kg/ha): 8.9
- ECHCG preemergence herbicidal rating (ECHCG (Barnyardgrass); rate 0.5000 kg/ha): 9.0
- CHEAL herbicidal rating ([3]; rate 0.0157 kg/ha): 5.0
- CHEAL herbicidal rating ([3]; rate 0.0313 kg/ha): 7.5
- CHEAL herbicidal rating ([3]; rate 0.0625 kg/ha): 8.4
- CHEAL herbicidal rating ([3]; rate 0.1250 kg/ha): 9.0

Structure (SMILES): CCOC(=O)CN1C(=O)CS(=O)(=O)C1=Nc1cc(-n2c(=O)cc(C(F)(F)F)n(C)c2=O)c(F)cc1Cl [Compound 46, 2-{{2-Chloro-5-[3,6-dihydro-3-methyl-2,6-dioxo-4-(trifluoromethyl)-1(2H)-pyrimidinyl]-4-fluoro-phenyl}imino}-4-oxo-3-thiazolidineacetic acid, ethyl ester, 1,1-dioxide]
- Preemergence herbicidal rating GALAP (GALAP (Galium); rate 0.1250 kg/ha): 0.0
- Preemergence herbicidal rating GALAP (GALAP (Galium); rate 0.2500 kg/ha): 0.0
- Preemergence herbicidal rating GLXMAW ([1]; rate 0.1250 kg/ha): 0.0
- Preemergence herbicidal rating GLXMAW ([1]; rate 0.2500 kg/ha): 0.0
- Postemergence herbicidal rating IPOHE ([2]; Rate 0.0313 kg/ha): 3.0
- Postemergence herbicidal rating IPOHE ([2]; Rate 0.0625 kg/ha): 9.0
- Herbicidal rating MOOVA (MOOVA (Monochoria); [4]): 3.0
- Herbicidal rating MOOVA (MOOVA (Monochoria); [5]): 4.0
- Herbicidal rating MOOVA (MOOVA (Monochoria); [6]): 6.0
- Herbicidal rating MOOVA (MOOVA (Monochoria); [7]): 7.0
- Preemergence herbicidal rating ECHCG (ECHCG (Barnyardgrass); rate 0.1250 kg/ha): 0.0
- Preemergence herbicidal rating ECHCG (ECHCG (Barnyardgrass); rate 0.2500 kg/ha): 0.0
- Postemergence herbicidal rating CHEAL ([3]; Rate 0.0313 kg/ha): 0.0
- Postemergence herbicidal rating CHEAL ([3]; Rate 0.0625 kg/ha): 0.0

Structure (SMILES): CCOC(=O)CN1C(=O)C(CC(=O)NOC)SC1=Nc1cc(-n2c(=O)cc(C(F)(F)F)n(C)c2=O)c(F)cc1Cl (centres unmarked) [Compound 83, Ethyl 2-{{2-chloro-5-[3,6-dihydro-3-methyl-2,6-dioxo-4-(trifluoromethyl)-1(2H)-pyrimidinyl]-4-fluorophenyl}imino}-5-[(methoxycarbamoyl)methyl]-4-oxo-3-thiazolidineacetate]
- GALAP rating (GALAP (Galium); 0.0156 kg/ha): 0.0
- GALAP rating (GALAP (Galium); 0.0313 kg/ha): 0.0
- GALAP rating (GALAP (Galium); 0.0625 kg/ha): 0.0
- GALAP rating (GALAP (Galium); 0.1250 kg/ha): 0.0
- GALAP rating (GALAP (Galium); 0.2500 kg/ha): 9.0
- GALAP rating (GALAP (Galium); 0.5000 kg/ha): 9.0
- GLXMAW rating ([1]; 0.0156 kg/ha): 0.0
- GLXMAW rating ([1]; 0.0313 kg/ha): 0.0
- GLXMAW rating ([1]; 0.0625 kg/ha): 0.0
- GLXMAW rating ([1]; 0.1250 kg/ha): 0.0
- GLXMAW rating ([1]; 0.2500 kg/ha): 5.0
- GLXMAW rating ([1]; 0.5000 kg/ha): 7.0
- IPOHE herbicidal rating ([2]; rate 0.0156 kg/ha): 9.0
- IPOHE herbicidal rating ([2]; rate 0.0313 kg/ha): 9.0
- IPOHE herbicidal rating ([2]; rate 0.0625 kg/ha): 9.0
- IPOHE herbicidal rating ([2]; rate 0.1250 kg/ha): 9.0
- Herbicidal rating MOOVA (MOOVA (Monochoria); [8]): 9.0
- Herbicidal rating MOOVA (MOOVA (Monochoria); [9]): 9.0
- Herbicidal rating MOOVA (MOOVA (Monochoria); [10]): 9.0
- Herbicidal rating MOOVA (MOOVA (Monochoria); [11]): 9.0
- ECHCG rating (ECHCG (Barnyardgrass); 0.0156 kg/ha): 0.0
- ECHCG rating (ECHCG (Barnyardgrass); 0.0313 kg/ha): 0.0
- ECHCG rating (ECHCG (Barnyardgrass); 0.0625 kg/ha): 0.0
- ECHCG rating (ECHCG (Barnyardgrass); 0.1250 kg/ha): 0.0
- ECHCG rating (ECHCG (Barnyardgrass); 0.2500 kg/ha): 0.0
- ECHCG rating (ECHCG (Barnyardgrass); 0.5000 kg/ha): 4.0
- CHEAL herbicidal rating ([3]; rate 0.0156 kg/ha): 5.0
- CHEAL herbicidal rating ([3]; rate 0.0313 kg/ha): 7.0
- CHEAL herbicidal rating ([3]; rate 0.0625 kg/ha): 9.0
- CHEAL herbicidal rating ([3]; rate 0.1250 kg/ha): 9.0

Structure (SMILES): C=CCN1C(=O)C(CC(=O)NC)SC1=Nc1cc(-n2c(=O)cc(C(F)(F)F)n(C)c2=O)c(F)cc1Cl (centres unmarked) [Compound 84, 3-Allyl-2-{{2-chloro-5-[3,6-dihydro-3-methyl-2,6-dioxo-4-(trifluoromethyl)-1(2H)-pyrimidinyl]-4-fluorophenyl}imino}-N-methyl-4-oxo-5-thiazolidineacetamide]
- GALAP rating (GALAP (Galium); 0.0156 kg/ha): 0.0
- GALAP rating (GALAP (Galium); 0.0313 kg/ha): 0.0
- GALAP rating (GALAP (Galium); 0.0625 kg/ha): 0.0
- GALAP rating (GALAP (Galium); 0.1250 kg/ha): 0.0
- GALAP rating (GALAP (Galium); 0.2500 kg/ha): 5.0
- GALAP rating (GALAP (Galium); 0.5000 kg/ha): 5.0
- GLXMAW rating ([1]; 0.0156 kg/ha): 0.0
- GLXMAW rating ([1]; 0.0313 kg/ha): 0.0
- GLXMAW rating ([1]; 0.0625 kg/ha): 0.0
- GLXMAW rating ([1]; 0.1250 kg/ha): 3.0
- GLXMAW rating ([1]; 0.2500 kg/ha): 5.0
- GLXMAW rating ([1]; 0.5000 kg/ha): 7.0
- IPOHE herbicidal rating ([2]; rate 0.0156 kg/ha): 9.0
- IPOHE herbicidal rating ([2]; rate 0.0313 kg/ha): 9.0
- IPOHE herbicidal rating ([2]; rate 0.0625 kg/ha): 9.0
- IPOHE herbicidal rating ([2]; rate 0.1250 kg/ha): 9.0
- Herbicidal rating MOOVA (MOOVA (Monochoria); [8]): 9.0
- Herbicidal rating MOOVA (MOOVA (Monochoria); [9]): 9.0
- Herbicidal rating MOOVA (MOOVA (Monochoria); [10]): 9.0
- Herbicidal rating MOOVA (MOOVA (Monochoria); [11]): 9.0
- ECHCG rating (ECHCG (Barnyardgrass); 0.0156 kg/ha): 0.0
- ECHCG rating (ECHCG (Barnyardgrass); 0.0313 kg/ha): 0.0
- ECHCG rating (ECHCG (Barnyardgrass); 0.0625 kg/ha): 0.0
- ECHCG rating (ECHCG (Barnyardgrass); 0.1250 kg/ha): 0.0
- ECHCG rating (ECHCG (Barnyardgrass); 0.2500 kg/ha): 2.0
- ECHCG rating (ECHCG (Barnyardgrass); 0.5000 kg/ha): 9.0
- CHEAL herbicidal rating ([3]; rate 0.0156 kg/ha): 6.0
- CHEAL herbicidal rating ([3]; rate 0.0313 kg/ha): 7.0
- CHEAL herbicidal rating ([3]; rate 0.0625 kg/ha): 9.0
- CHEAL herbicidal rating ([3]; rate 0.1250 kg/ha): 9.0
